Assay results from article PMC7615185, “Structural basis for ion selectivity in potassium-selective channelrhodopsins” (Cell, 2023).

Target: T1, HcKCR1 (Hyphochytrium catenoides, UniProt A0ABF7PQA2, A110C)
T1 construct: M1-S265; 7TM rhodopsin domain; Sf9, HA signal/FLAG and eGFP-His10-Rho1D4 tags cleaved by 3C, MSP1E3D1/SoyPC nanodisc; residues 6-260 modelled; homotrimer; eYFP fusion in HEK293 for patch clamp
T1 sequence (A0ABF7PQA2 1-265 A110C): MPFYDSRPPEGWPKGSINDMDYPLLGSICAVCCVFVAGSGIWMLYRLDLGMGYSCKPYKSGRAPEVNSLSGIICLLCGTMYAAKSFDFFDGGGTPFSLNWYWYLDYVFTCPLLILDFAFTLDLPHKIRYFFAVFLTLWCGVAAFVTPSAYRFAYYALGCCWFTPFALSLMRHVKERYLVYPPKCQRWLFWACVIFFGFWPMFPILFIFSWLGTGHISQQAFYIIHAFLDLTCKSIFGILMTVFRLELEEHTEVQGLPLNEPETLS
Assay: cryo-EM structure, retinal isomer by HPLC
Type: binding
Details: dark state, nanodisc, pH 7.5; covalent Schiff base to K233

CC1=C(/C=C/C(C)=C/C=C/C(C)=C/C=O)C(C)(C)CCC1 [all-trans-retinal]
cryo-EM structure, retinal isomer by HPLC: accurate modeling of most residues of both HcKCRs
